pIC50: −log10 of the molar value. ≈ marks a conversion by molar mass, not a printed value.
Tests used:
[1] = Cell viability in HQ-induced oxidative stress (MTT); type: cell-based, human; conditions: human, ARPE-19 cells; ARPE-19, 600 μM HQ alone
Experimental: (§1) […] Cells were rinsed once using an FBS-free medium to remove any residual CUR-SNEDDS. Afterward, the oxidative stress-provoking agent, HQ (Sigma-Aldrich), was added. The cells were exposed to 600 μM HQ for 2 h to achieve 60–70% viability, as determined in the control samples [44]. Cell viability was assessed using the MTT assay. Cells were assessed with microscopy before the viability test to confirm the correlation of the absorbance readings from the MTT assay.

[2] = system: ARPE-19 cells; test: Indirect quantification of CUR uptake (CUR recovered in medium); type: cell-based, human
Experimental: ARPE-19 cells were seeded on acid-etched coverslips placed into a 6-well plate with a seeding density of 850,000 cells/well and incubated at 37 °C for 24 h. The cells were then incubated with media containing AC at the same concentration that was used for the cytotoxicity experiment. After 3 h of exposure to the AC and C formulations, the coverslips were removed, washed twice with PBS, and fixed with 4% paraformaldehyde (PFA) for 15 min. Subsequently, the PFA was removed, followed by two washes with PBS. […] Cell imaging was conducted using a ZEISS Axio Imager M2 fluorescent microscope (Carl Zeiss Microscopy Deutschland GmbH, Oberkochen, Germany). […] The experiments were conducted 24 h after seeding, using an FBS-free medium. The cells were rinsed once with a serum-free medium to remove the FBS residues and then exposed to 0.1–2 μM concentrations of SNEDD-CUR diluted in a medium. After a 3 h exposure period, the medium was removed and collected into another 96-well plate.

[3] = Solubility of CUR in water (inherent vs apparent with SNEDDS); type: physicochemical
[4] = system: ARPE-19 cells; test: Cytocompatibility, MTT assay, ARPE-19 cells; type: cell-based, human; conditions: 5 μM CUR, 3 h, vs control
Experimental: The ARPE-19 cell line obtained from the American Type Culture Collection (ATCC, Manassas, VA, USA) was used in the study. Cells were cultured in Dulbecco’s modified eagle medium/nutrition mix F-12 (1:1; Gibco, Paisley, UK) supplemented with 10% fetal bovine serum (FBS; Hyclone, Logan, UT, USA), 100 U/mL penicillin (Lonza, Walkersville, MD), and 2 mM L-glutamine (Lonza, Walkersville, MD, USA). The cells were grown at 37 °C in a humidified 5% CO2 atmosphere. The experiments were performed 24 h after seeding using an FBS-free medium. […] The cells were exposed for 3 h before the cell viability tests. Cell viability was assessed using the MTT assay. Cells were assessed with microscopy before the viability test to confirm the correlation of the absorbance readings from the MTT assay.

[5] = CUR solubility in different vehicles (oils and surfactants); type: physicochemical; conditions: for solubility at 24 h: 25 °C, thermodynamic from solid
Experimental: Different types of oils were selected based on biocompatibility and biodegradability: Mygliol® 812, Capryol® PGMC and Capryol® 90, Tegin® O, Isopropylmyristate (IPM), and Castor oil. Five surfactants, including Tween® 20, Tween® 80, Cremophor EL®, Solutol ®HS15, and Transcutol® P, were selected for the experiment in order to investigate the best materials for CUR-SNEDDS preparation. […] The mixtures were stirred (350 rpm) using a magnetic stirrer for 24 h. The samples were covered in order to prevent photo-degradation. […] The absorbance reading occurred at 422 nm.

[6] = system: cell proliferation; conditions: cited from earlier work
[7] = system: ARPE-19 cells; test: Cell viability in HQ-induced oxidative stress (MTT); type: cell-based, human; conditions: ARPE-19, 600 μM HQ
Experimental: as §1

[8] = system: HCE cells; test: Cytocompatibility, MTT assay, HCE cells; type: cell-based, human; conditions: 5 μM CUR, 3 h, vs control
Experimental: HCE cells were cultured at 37 °C and 5% CO2 using a growth medium consisting of 1:1 DMEM/F12 (Gibco by Life Technologies Limited, Paisley, UK), 15% FBS (fetal bovine serum; Gibco by Life Technologies Limited, Paisley, UK), 100 U/mL penicillin, 0.1 mg/mL streptomycin (penicillin/streptomycin solution from EuroClone spa, Pero, Italy), 0.3 mg/mL L-glutamine (EuroClone spa, Pero, Italy), 10 ng/mL EGF (Recombinant Human Epidermal Growth Factor; Gibco by Life Technologies Corporation, Carlsbad, CA, USA), 5 μg/mL human recombinant insulin (Gibco by Life Technologies Corporation, Grand Island, NY, USA), and 0.5% sterile filtrated DMSO (Sigma-Aldrich, St. Louis, MO, USA), 0.1 μg/mL cholera toxin (Sigma-Aldrich, St. Louis, MO, USA). The fresh growth medium was changed for the cells every 2–3 days. When reaching a 75–80% confluence, the cells were either subcultured 1:5–1:30 or seeded for the experiment. Upon confluence, the cells were washed with 1xDPBS (Gibco by Life Technologies Limited, Paisley, UK) and detached with 0.05% trypsin–EDTA (Gibco by Life Technologies Limited, Paisley, UK). […] Cell viability was assessed using the 3-(4,5-dimethyl-thiazol-2-yl)-2,5-diphenyltetrazolium bromide (MTT) assay. Cells were assessed with microscopy before the viability test to confirm the correlation of the absorbance readings from the MTT assay.

[9] = Stability of CUR in PBS and in SNEDDS under storage conditions; type: physicochemical; conditions: PBS, 6 h
Experimental: HPLC analysis was performed on a reversed-phase C18 column (4.6 mm × 150 mm, 5 μm, ZORBAX Eclipse SB-C18) at 25 °C. The mobile phase was composed of water with 4% acetic acid and acetonitrile (44:56, v/v), filtered through a 0.22 μm Milli-pore filter and degassed prior to use. The flow rate was 0.850 mL/min, and the eluent was detected by a DAD detector at 430 nm.
The preparation of the sample AC followed the procedure described in Section 4.3. The sample was divided into four glass vials, with each set of vials being stored under different conditions, namely at 4 °C dark, 25 °C dark, 25 °C light, and 40 °C dark, to assess the typical storage conditions and investigate possible protection from degradation phenomena. Sample C was prepared differently. […] The mixture was then subjected to magnetic stirring at 350 rpm for 20 min. After stirring, the tube was centrifuged at 13,000 rpm for 20 min at 25 °C. The supernatant was collected and divided into four glass vials, each representing a different storage condition compared to the AC sample. […] HPLC analysis was employed to detect any variations in absorbance.

Compound | viability at 2 h, 600 μM [1] [%] | CUR recovered in the medium (not internalized) ([2]; ARPE-19, 3 h, listed as free CUR) [%] | CUR internalized ([2]; ARPE-19, concentration not stated (discussion)) [%] | CUR internalized inside the cells ([2]; ARPE-19, higher concentrations such as 1 μM and 2 μM, 3 h) [%] | solubility [3] [µg/mL] | Reduction in cell viability [4] | solubility at 24 h ([5]; aqueous with cosolvent or surfactant or cyclodextrin, in Tween 80) [µg/mL] | solubility at 24 h ([5]; oil or lipid, in Capryol 90) [µg/mL] | solubility at 24 h ([5]; organic solvent or mixture, in Transcutol P) [µg/mL] | Solubility of CUR ([5]; in Capryol PGMC) [µg/mL] | pIC50 ([6]; anticancer agent and cell proliferation blocker) | Concentrations at which CUR acts as anticancer agent and cell proliferation blocker [6] [µM] | Effect on cell viability compared to cells exposed to HQ [7] | Reduction in cell viability [8] | CUR remaining / recovered ([9]; 4 °C) [%] | CUR remaining / recovered ([9]; 25 °C (r.t.) dark) | CUR remaining / recovered ([9]; 25 °C (r.t.) dark, listed as Native CUR) [%] | CUR remaining / recovered ([9]; 25 °C light) | CUR remaining / recovered ([9]; 40 °C dark)
Oc1ccc(O)cc1 [HQ, hydroquinone] | 70 | – | – | – | – | – | – | – | – | – | – | – | – | – | – | – | – | – | –
COc1cc(/C=C/C(=O)CC(=O)/C=C/c2ccc(O)c(OC)c2)ccc1O [CUR, Curcumin] | – | 100 | 0 | 1 | < 1 | not observed | 6800 (≈ 18.5 mM) | 8360 (≈ 22.7 mM) | 4610 (≈ 12.5 mM) | 8000 | ~5.00 | 5 to 10 | no significant difference | not observed | 57 | less than 10% | 9 | completely degraded | completely degraded
